In ChEMBL document CHEMBL3507680, “University of Dundee, Gates Library screen for HepG2 cell viability” one finds cytotoxicity data, which are given here for 90 compounds.

This series is described as follows: Human HepG2 cell viability assay in 384 well format. On the set-up: dose 125 nL, time 70.5 hour; concentration not given beside the values. As to conditions: HepG2 cells, read-out: Inhibition. The format is toxicity, cell-based.

On to `c1ccc(NCc2cn3c(n2)CN(Cc2nccs2)CC3)nc1`, for which the cytotoxicity at 70.5 h was -0.336%. For `Cc1noc([C@@]23CCO[C@@H]2CCN(C(=O)c2cc(C)on2)C3)n1` the value was -3.23%; for `Cc1noc([C@@]23CCO[C@@H]2CCN(C(=O)c2ccsc2)C3)n1`, -1.85%. In the case of `COCCN1C(=O)[C@]2(CC[C@@H]3CN(C(=O)NC(C)C)C[C@@H]32)N=C1C` it was 25.4%. For `CC1=N[C@@]2(CC[C@@H]3CN(C(=O)NCC(C)C)C[C@@H]32)C(=O)N1CC(C)C` the value was 12.3%.

On to `O=C1NC(c2ccccc2)=N[C@@]12CC[C@@H]1CN(Cc3ccoc3)C[C@@H]12`, for which the cytotoxicity at 70.5 h was -3.26%. For `CCS(=O)(=O)N1CCC2(CC(=O)N(c3cnn(C)c3)C2)C1` (stereo not given) the value was -2.5%; for `COCC1CN(Cc2cc(C)on2)Cc2cn(CC3CC3)nc21` (stereo not given), -1.87%.

Regarding `O=C(c1ccsc1)N1CCc2c(CN3CCCC3)n[nH]c2C1`, the cytotoxicity at 70.5 h was determined as 0.233%. For `O=C1NC(c2ccccc2)=N[C@@]12CC[C@@H]1CN(CC3CCOCC3)C[C@@H]12` the value was 23.3%; for `c1ccc(C[C@H]2[C@H](N3CCOCC3)CCN2Cc2cccnc2)cc1`, 2.51%. For `CO[C@H]1CO[C@@]2(CCCN(C(=O)C3=CCCCC3)C2)C1`, the cytotoxicity at 70.5 h is -2.72%. Turning to `CN(C)C(=O)N1CCc2c(nnn2C)C1COCc1ccccc1` (stereo not given), the cytotoxicity at 70.5 h is -2.85%.

As to `O=C([C@H]1C[C@H]2OCC[C@H]2N(C(=O)c2ccncc2)C1)N1CCCCO1`, the cytotoxicity at 70.5 h was 3.71%. In the case of `Cn1cccc1C(=O)NCc1cnc2n1CCN(C(=O)N1CCCC1)C2` it was -4.52%; in that of `O=C(c1ccsc1)N1CCc2c(CNc3ncccn3)n[nH]c2C1`, 3.39%; in that of `CN(C)C(=O)c1nc2c(s1)CCN(C(=O)c1ccc(Cl)cc1)CC2`, -2.44%. With `O=C(c1cscn1)N1C[C@@H]2[C@@H](C1)OCC(=O)N2CC1CCCC1`, the cytotoxicity at 70.5 h was -6.35%. With `COCCC(=O)N1CCN(CCN(C)C)c2ncccc2C1`, the cytotoxicity at 70.5 h was -6.14%. In the case of `Cc1csc([C@@H]2C[C@@H]3CCN(Cc4cnn(C)c4)C[C@H]3O2)n1` it was -8.46%; in that of `CN(C)C(=O)COCc1cncc2c1CCN(Cc1nccn1C)C2`, -7.66%.

Take `c1ccc(O[C@H]2CC[C@H]3[C@H]2OCCN3Cc2nccs2)nc1`: the cytotoxicity at 70.5 h was -9.23%. In the case of `O=C(CCO)N1CCOC2(CCCN(C(=O)c3ccco3)C2)C1` (stereo not given) it was -7.04%; in that of `COCC(=O)N1CC[C@@H]2CN(Cc3cccc(Cl)c3)S(=O)(=O)[C@@H]2CC1`, 24.3%. Take `COCCN1CCC2(CCN(Cc3nccs3)CC2)C1=O`: the cytotoxicity at 70.5 h is -8.69%. For `Cc1noc(C)c1CN1CC2(CCN(C(=O)c3c[nH]cn3)C2)CC1=O` (stereo not given) the value was -11.1%; for `CCN(C)c1ncnc2c1CCN(C(=O)c1ccno1)CC2`, -7.5%; for `Cc1occc1C(=O)N1CCC2(CC1)CC(c1cccnc1)C(=O)N2C` (stereo not given), -17.4%. As to `O=C(c1ccncn1)N1CCO[C@H]2[C@@H](OCc3cccnc3)CC[C@@H]21`, the cytotoxicity at 70.5 h is -9.05%. For `CCOCC1CN(C(=O)N(C)C)Cc2nn(C)cc21` (stereo not given), the cytotoxicity at 70.5 h was -5.53%. For `Cc1cc(C(=O)N2CC[C@H](OCC3CC3)[C@@H]2Cc2cccnc2)no1` the value was -4.43%. For `CN(Cc1ccco1)C[C@H]1OC[C@@H]2CCN(Cc3nccs3)C[C@@H]21` the value was -10.1%. For `Cc1oncc1C(=O)N1CCC2(CC1)CC(c1ccccc1)C(=O)N2C` (stereo not given) the value was -19%; for `Cc1cnc(N2CCC3(CCCN(c4ccc(C)nn4)C3)C2)nc1` (stereo not given), 14.4%; for `COCC(=O)N1CCC(c2nc3ccc(-c4ccccc4)cn3n2)CC1`, -7.3%.

In the case of `Cc1ccnn1CCC(=O)N1CCCC2(C1)NC(=O)c1ccccc1O2` (stereo not given), the cytotoxicity at 70.5 h is -2.25%. In the case of `Cc1c(CN2CCCC(n3c(=O)oc4ccccc43)C2)cnn1C` (stereo not given) it was 17.2%; in that of `Cn1cc(CN2CCCC(n3c(=O)oc4ccccc43)C2)cn1` (stereo not given), -0.583%; in that of `COc1nc2cc(C)ccc2cc1CN(C)Cc1n[nH]c2c1CCCC2`, 2.69%. As for `COCC(=O)N1CCC(c2cc3nc(C)cc(C(F)(F)F)n3n2)CC1`, the cytotoxicity at 70.5 h was 25.3%. In the case of `CCN(CC)S(=O)(=O)c1cc2c3c(c1)c(C)cc(=O)n3CCC2` it was 36%; in that of `CC(C)N1CCCCC1c1cncc(Cl)n1` (stereo not given), 17.6%. For `CNc1cc(C)nc(C2COCCN2CCc2ccc(F)cc2)n1` (stereo not given) the value was -4.38%. For `Cn1cc([C@@H]2CN(S(=O)(=O)c3cccnc3)C[C@H]2N)c2ccncc21` the value was 24%; for `O=S(=O)(C1CC1)N1CCn2cc(CNc3ccccn3)nc2C1`, -0.935%. In the case of `COCc1cnc2n1CCN(C1CCCC1)C2C` (stereo not given), the cytotoxicity at 70.5 h was 5.67%.

In the case of `Cc1nc(CN2CCCn3cnc(COCC4CC4)c3C2)cs1`, the cytotoxicity at 70.5 h is -1.49%. In the case of `CCCS(=O)(=O)N1CCn2cc(CNc3ccccn3)nc2C1` it was -2.49%. For `CO[C@@H]1CCN(c2nnc(C)s2)C[C@@H]1Cc1cccc(C)c1` the value was -0.0343%. Take `O=C(c1cccs1)N1CCC[C@]2(C[C@@H](OCc3ccncc3)CO2)C1`: the cytotoxicity at 70.5 h was -4.03%.

Take `Cc1nc(CN2CCc3ncnc(C4CCOC4)c3CC2)cs1` (stereo not given): the cytotoxicity at 70.5 h was found to be 0.032%. In the case of `Cn1cc(N2CC3(CCN(CC4CC4)C3)CC2=O)cn1` (stereo not given) it was -2.96%. In the case of `Cc1ccc(CN2C[C@H](C(=O)N3CCCCO3)[C@@H]3CCO[C@@H]3C2)o1` it was -5.78%. In the case of `Cc1noc([C@@]23CCO[C@@H]2CCN(CC2CCOCC2)C3)n1` it was -5.71%; in that of `Cn1cccc1C(=O)N[C@@H]1CN(CC2CC2)[C@@H]2COC[C@@H]21`, -5.94%; in that of `COCCN1C[C@@H]2CCCO[C@@H]2[C@H](NC(=O)c2cnccn2)C1`, -0.647%. `O=C(C1=CCCC1)N1CCC[C@]2(C[C@@H](OCc3ccncc3)CO2)C1`: the cytotoxicity at 70.5 h is 0.64%.

For the compound `Cc1nc(CN2CCn3cc(CNC(=O)C4CCC4)nc3C2)cs1`, the cytotoxicity at 70.5 h worked out at 14%. `CO[C@H]1CN(Cc2cccc(C#N)c2)[C@@H]2COC[C@H]12`: the cytotoxicity at 70.5 h was -0.497%.

For `O=C(O)[C@]12CCCN(Cc3ccccc3)C[C@H]1CN(c1ncccn1)C2`, the cytotoxicity at 70.5 h is -5.39%. Regarding `Cc1nnc(N2CC[C@H](OCC3CC3)[C@@H](Cc3ccccc3)C2)s1`, the cytotoxicity at 70.5 h came out at 11.8%. For `O=C([C@H]1CN(CCc2ccccc2)C[C@H]2OCC[C@@H]12)N1CCCO1` the value was 6.27%. Take `COc1ccc(CN2CCc3ncnc(C4CCOC4)c3CC2)cc1` (stereo not given): the cytotoxicity at 70.5 h came out at 13.2%.

For `O=C1[C@H]2CN(Cc3cccs3)C[C@H]2CN1c1cncnc1`, the cytotoxicity at 70.5 h was -6.91%. As to `COCC1CN(Cc2ccc(C)o2)Cc2nnn(CC3CC3)c21` (stereo not given), the cytotoxicity at 70.5 h was -5.7%. For `Cc1occc1C(=O)N1CCOCC2(CCN(Cc3nccs3)C2)C1` (stereo not given) the value was -6.13%; for `CN(C)C(=O)CO[C@H]1CN(Cc2ccc(F)cc2)[C@@H]2CCCO[C@H]12`, -9.38%.

Consider `Cc1occc1C(=O)N1CCCC2(CCN(CCN3CCCC3)C2=O)C1` (stereo not given), for which the cytotoxicity at 70.5 h is -11.9%.

For `Cc1ccc(CN2CCOC3(CCCN(C(=O)c4ccco4)C3)C2)s1` (stereo not given), the cytotoxicity at 70.5 h is -10.7%.

Consider `CN(C)C(=O)CN1CCC2(CCN(Cc3nccs3)CC2)C1=O`, for which the cytotoxicity at 70.5 h is 16.1%. In the case of `CCn1cc2c(n1)CN(C(=O)c1ccncc1)CC2COCC1CC1` (stereo not given) it was -25.7%; in that of `Cc1ccc(CN2CC(C(=O)Nc3ccccc3)C3(CCOCC3)C2)s1` (stereo not given), -13.1%.

Take `Cn1cc(C(=O)N[C@@H]2CN(Cc3cccs3)[C@@H]3CCCO[C@@H]32)cn1`: the cytotoxicity at 70.5 h was -14.7%. In the case of `Cc1nc(CN2C(=O)COC3(CCN(Cc4ccco4)CC3)C2C)cs1` (stereo not given) it was -1.55%. For `CC(C)N(C)Cc1cn2c(n1)CN(C(=O)Cc1ccsc1)CC2` the value was 0.0105%; for `COc1ccc(CN2C[C@@H](OCc3csc(C)n3)[C@H]3COC[C@H]32)cc1`, -3.55%; for `Cc1nc(CO[C@@H]2CN(Cc3cnn(C)c3)[C@@H]3COC[C@@H]32)cs1`, 5.43%. For `CC1c2ncc(COCc3ccccn3)n2CCN1C1CCCC1` (stereo not given) the value was -2.61%; for `CN1CC(=O)N(c2ccccc2)CC12CCN(Cc1nccs1)C2` (stereo not given), 3.9%; for `CC(C)NC(=O)[C@H]1C[C@@H]2[C@@H](C1)OCCN2Cc1cccnc1`, -2.77%. On to `COCC1CN(Cc2ccc(C)o2)Cc2cn(C)nc21` (stereo not given), for which the cytotoxicity at 70.5 h was found to be 3.14%. For `CN(C)CCO[C@H]1CN(Cc2cccc(C#N)c2)[C@@H]2COC[C@H]12` the value was -1.49%; for `O=C(CC1CC1)N[C@@H]1CN(Cc2ccncc2)C[C@@H]2CCCO[C@@H]21`, -0.814%; for `COCCN1CCOCC2(CCCN(Cc3ccc(C)o3)C2)C1` (stereo not given), 7.21%. In the case of `c1cncc(COCc2nnc3n2CCN(Cc2ccsc2)C3)c1` it was -2.47%; in that of `O=C1[C@H]2CN(Cc3ccoc3)C[C@H]2CN1Cc1ccncc1`, -1.61%; in that of `c1csc(CN2CCO[C@H]3[C@H](OCCN4CCCC4)CC[C@@H]32)n1`, -11.1%. In the case of `COCC1CC2(CCN(Cc3cnn(C)c3)CC2)CN1c1ncccn1` (stereo not given) it was -10.8%; in that of `Cc1ccc(CN2CC[C@@H](N3CCOCC3)[C@@H]2Cc2cccnc2)o1`, -6.64%. Turning to `Cc1cc(C(F)(F)F)n2nc(C3CCCN3C3CCSCC3)cc2n1` (stereo not given), the cytotoxicity at 70.5 h is -2.47%.
